In one experiment the target is T1, R92K Siglec-6-Fc (Homo sapiens, UniProt O43699, R92K).
T1 construct: the Siglecs as Fc chimeras; made in house; host or cells: WT CHO cells
Description: Bead assay (Siglec-Fc on streptavidin microbeads, flow cytometry). It is filed as binding. As for the experimental part:
(§1) Siglec-Fc constructs designed by Rodrigues et al.[30] were used in this work. Siglec-Fc constructs were expressed using WT CHO cells in cell culture media as described above with 1% HEPES. Cells incubated as described above for one-week post confluency. The supernatant was harvested and stored at 4 °C.
(§2) The purification was heavily inspired by Rodrigues et al.[30]. The purification of the Siglec-Fcs from supernatant began with Ni^2+ affinity chromatography using an AKTA FPLC equipped with a HisTrap Excel column (GE). The column was equilibrated with fifteen column volumes (CVs) of equilibrium buffer (500 mM NaCl, 20 mM NaPO4H2, pH 7.4). The Siglec-Fc containing supernatant was then loaded in its entirety onto the column. The column was then washed with fifteen CVs of wash buffer (500 mM NaCl, 30 mM imidazole, 20 mM NaPO4H2, pH 7.4). The Siglec-Fc was then eluted in 20 in 1 mL fractions with twenty CVs of elution buffer (500 mM NaCl, 500 mM imidazole, 20 mM NaPO4H2, pH 7.4). Fractions containing Siglec-Fc were compiled and then prepared for the next stage of purification by diluting the fractions 1:4 with buffer W (100 mM Tris–HCl, 150 mM NaCl, 1 mM EDTA, pH 8.0). A Strep-Tactin column (IBA life sciences) was washed with fifteen CVs of buffer W. The Siglec-Fc-buffer W solution was then loaded in its entirety onto the column. The bound Siglec-Fc was then washed with fifteen CVs of buffer W. Siglec-Fc was eluted from the column with 15 column volumes of buffer E (100 mM Tris–HCl, 150 mM NaCl, 1 mM EDTA, 10 mM d-Desthiobiotin, pH 8.0). Fractions containing Siglec-Fc were pooled and dialyzed against PBS to remove any d-Desthiobiotin. After dialysis, Siglec-Fcs were concentrated using an ultra-centrifugal device (30 kDa MWCO) and aliquoted into 5 µg aliquots, and frozen. The Siglec-Fcs were then lyophilized overnight, and the lyophilized Siglec-Fcs were stored at −20 °C.
(§3) Pierce^TM Streptavidin Magnetic Beads (Thermo Scientific) were blocked with 2% (m/V) BSA on ice for 1 h. Siglec-Fc in PBS was added then added to the bead solution such that the final concentration was 25 µg/mL. The Siglec-Fc was complexed to the beads for 1 h on ice. Excess Siglec-Fc was removed by washing the beads with 2% BSA solution and 50 µM liposome or 50 µg/mL (protein concentration) EV solution was then added to the beads. The beads were incubated with the liposomes/EVs for 30 min at 37 °C. The beads were then washed with 2% BSA solution and flow cytometry was used to measure the binding between the beads and the liposomes.
On the technique in general: In flow cytometry, cells or beads pass a laser one at a time.

A further experiment concerns the target T2, WT Siglec-6-Fc (Homo sapiens, UniProt O43699).
T2 construct: the Siglecs as Fc chimeras; made in house; host or cells: WT CHO cells
Described as above. It is filed as binding. As for the experimental part:
as §1, §2, §3

The next experiment has as its system naïve B-cells. Description: Liposome binding to peripheral blood naïve B-cells by flow cytometry. It counts as cell-based, human. The note with it: sheet Figure S29, 5% GM3-DAG liposomes; cells not given. As for the experimental part:
(§4) 200,000 cells/well were plated into a 96-well U-bottom microplate and centrifuged at 300 × g for 5 min. The cells were then resuspended in 50 µL of 50 µM liposome/50 µg/mL (protein concentration) of EV solution in DMEM F12 5% FBS and incubated at 37 °C for 30 min. Excess liposomes were then removed via centrifuged at 300 × g for 5 min followed by washing the cells with FACS solution. The cells were then resuspended in (1:250 V/V) anti-Siglec-flow buffer (1% V/V FBS, 500 µM, EDTA Hank’s Balanced Salt Solution pH 7.4), solution and left to rest on ice for 30 min. The cells were then centrifuged again at 300 × g for 5 min and the cells were resuspended in FACS buffer solution and were then ready for analysis by flow cytometry. Information regarding antibody clone, catalog number supplier, label isotype, and dilution can be found in Supplementary Table 6. The Siglec-positive cells were gated on for liposome-binding analysis (Supplementary Fig. 1b).
(§5) Flow cytometry measurements were collected on a 5-laser Fortessa X-20 (BD Bioscience). All the resulting data were analyzed using FlowJo (10.5.3) software (BD Biosciences).

The target of a further experiment is T3, R92K Siglec-6 CHO cells (Homo sapiens, UniProt O43699, R92K).
T3 construct: These new CHO cell lines are the full-length versions of the Siglecs; expressed in transfected cells
T3 sequence (O43699 27-453 R92K): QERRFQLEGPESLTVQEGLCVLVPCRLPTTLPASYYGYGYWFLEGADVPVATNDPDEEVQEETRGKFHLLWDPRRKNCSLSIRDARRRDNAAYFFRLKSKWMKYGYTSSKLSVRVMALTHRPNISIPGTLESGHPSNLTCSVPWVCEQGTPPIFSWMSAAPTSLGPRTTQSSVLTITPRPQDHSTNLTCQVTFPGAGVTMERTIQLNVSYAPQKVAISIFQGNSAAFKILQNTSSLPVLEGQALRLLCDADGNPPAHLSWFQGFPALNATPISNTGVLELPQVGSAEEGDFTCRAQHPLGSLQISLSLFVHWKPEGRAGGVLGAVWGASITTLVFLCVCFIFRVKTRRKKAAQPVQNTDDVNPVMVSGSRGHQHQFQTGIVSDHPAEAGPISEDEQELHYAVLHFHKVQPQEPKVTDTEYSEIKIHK
Description: Cell assay (liposome/EV binding, flow cytometry). It is filed as cell-based. The protocol:
Mutations were introduced into each Siglec via gene overlap extension PCR mutagenesis (primers were ordered through IDT). Mutagenesis primers can be found in Supplementary Tables 2 and 3 for the critical arginine mutants of the entire Siglec family and the additional Siglec-6 mutants respectively.
as §4, with “The Siglec-positive cells were gated on for liposome-binding analysis (Supplementary Fig. 1b).” left out
as §5

The test system of experiment [1] is CHO cells expressing Siglec-6/8 chimeras. The experiment can be described thus: Cell assay (liposome binding, flow cytometry). It is filed as cell-based, human. The protocol: as §4, §5
The genes for the constructs containing each domain of Siglec-6 to the two others from Siglec-8 were synthesized by GeneArt and designed with a 5’ NheI and 3’ AgeI site immediately before the start codon and stop codon respectively. […]

The test system of another experiment is LAD2 cells. Description: Liposome/EV binding to LAD2 cells by flow cytometry. It is filed as cell-based, human. The protocol: as §4, §5
The LAD2 cell line (a gift from Arnold Kirshenbaum) was cultured in StemPro-34 SFM media (Life Technologies) supplemented with 2 mM L-glutamine, 100 U/ml penicillin, […] streptomycin, and 100 ng/ml recombinant human SCF (PeproTech, Rocky Hill, NJ). […]

For the next experiment, the target named is WT Siglec-6 (Homo sapiens, UniProt O43699). Description: Binding competition between GM1 GLLs and 5 nGLLs. The note with it: 1 mol% GM1 liposomes. An excerpt:
Supplementary Fig. 20: Binding competition between GM1 GLLs and 5 nGLLs against WT Siglec-6.
Binding of 1 mol% GM1 liposomes to WT Siglec-6 in the presence of an increasing concentration of 5 mol%
5 nGLLs. Data is presented with a representative flow cytometry histogram and was quantified as the mean
± one standard deviation of the median fluorescent intensity (MFI) from […] three technical replicates. A
Brown-Forsythe and Welch one-way ANOVA was used to compare the binding of liposomes formulated
(1 picture or pasted object on this page, not shown here)

Experiment [2] concerns Daudi cells transduced with an empty vector. Description: pHrodo internalization assay by flow cytometry. The note with it: sheet Figure S42b. It is filed as cell-based, human.

Values joined by “and” are separate entries in the source; they are usually repeats but may differ in a detail not shown here. Equal values may be shown once.

T2 sequence (O43699 27-347 limits assumed): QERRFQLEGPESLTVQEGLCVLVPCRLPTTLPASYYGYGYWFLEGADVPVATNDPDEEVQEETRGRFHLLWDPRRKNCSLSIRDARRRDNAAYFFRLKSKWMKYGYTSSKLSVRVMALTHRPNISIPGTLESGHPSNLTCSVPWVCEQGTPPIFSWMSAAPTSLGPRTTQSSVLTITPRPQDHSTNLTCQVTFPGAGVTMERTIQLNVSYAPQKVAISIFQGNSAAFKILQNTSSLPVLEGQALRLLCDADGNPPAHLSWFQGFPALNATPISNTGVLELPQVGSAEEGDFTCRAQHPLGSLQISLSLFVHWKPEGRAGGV
T1 sequence (O43699 27-347 R92K limits assumed): as the sequence (O43699 27-347 limits assumed) above, with R66K counted along it
Sequence of WT Siglec-6 (O43699 27-453): as the sequence (O43699 27-453 R92K) above, with K66R counted along it

On to `CCCCCCCCCCCCCCCCOCC(COCCCCCCCCCCCCCCCC)OCc1cn(CCO[C@@H]2O[C@H](CO)[C@@H](O[C@@H]3O[C@H](CO)[C@H](O)[C@H](O[C@]4(C(=O)O)C[C@H](O)[C@@H](NC(C)=O)[C@H]([C@H](O)[C@H](O)CO)O4)[C@H]3O)[C@H](O)[C@H]2O)nn1` [GM3-DAG], for which the “liposome binding, fluorescence signal (replicates)” value is 264 and 225 and 240 and 223 on R92K Siglec-6-Fc (sheet Figure S27, R92K, assay format not given); 13816 and 10279 and 11696 and 11729 at WT Siglec-6-Fc (sheet Figure S27, WT, assay format not given); 154 and 151 and 136 and 149 with naïve B-cells.

Turning to `CCCCCCCCCCCCCCCCOCC(COCCCCCCCCCCCCCCCC)OCc1cn(CCO[C@@H]2O[C@H](CO)[C@@H](O[C@@H]3O[C@H](CO)[C@H](O)[C@H](O[C@]4(C(=O)O)C[C@H](O)[C@@H](NC(C)=O)[C@H]([C@H](O)[C@H](O)CO)O4)[C@H]3O)[C@H](O)[C@H]2O)nn1` [nGL 5], the “5 liposome binding gated on identical Siglec-6 expression levels, MFI (Fig. S26e)” value on R92K Siglec-6 CHO cells (R92K Siglec-6, replicates) was 29.25 and 36.25 and 24.25. Also, the “5 nGLL binding to R92K Siglec-6 CHO cells” value at R92K Siglec-6 CHO cells (cell assay, expression 42% of WT) is “minimal binding”. Also, in experiment [1], the “5 liposome binding to chimeras with one individual Siglec-6 domain” value is given as “none of the three individual Siglec-6 domains supported binding” and the “5 nGLL binding to chimera with the first two domains of Siglec-6” value is “significantly above background”. Moreover, the “binding of 5 nGLLs to R92K Siglec-6 Fc compared to WT Siglec-6” value on R92K Siglec-6-Fc (bead assay) is recorded as “less than 5%”. The “blocking of EV binding to Siglec-6 with 5 mol% 5 nGLLs” value at WT Siglec-6-Fc (bead assay) is “competed away binding of EVs”. In the experiment with LAD2 cells, the “5 nGLL binding to LAD2 cells” value is “bound robustly” and the “5 nGLL binding to LAD2 cells after pre-incubation with a Siglec-6 antibody” value is reported as “abrogated”. The “binding of GM1 GLLs to WT Siglec-6 in presence of increasing concentration of 5 mol% 5 nGLLs” value on WT Siglec-6 is on record as “decreased”.

Take GM3: the “liposome internalization signal (replicates)” value in experiment [2] (Emp-4 (empty vector, 4)) was 6.1 and 7 and 8.7 and 6.3; in experiment [2] (emp-37 (empty vector, 37)), 11.2 and 11.5 and 13.6 and 13.8.

Values taken from article PMC10122656, “Siglec-6 mediates the uptake of extracellular vesicles through a noncanonical glycolipid binding pocket” (Nature Communications, 2023).
